Source: patent publication US20260131009A1, “BIFUNCTIONAL PI3K-ALPHA INHIBITORS AND USES THEREOF” (Relay Therapeutics, Inc., priority 2021, published 2026)

Key:
[1] = molecular target: PI3Kα (Homo sapiens, UniProt P42336, H1047R); test: ADP-Glo IC50 assay; type: biochemical; settings: class symbols; key not given
[2] = test system: MCF10A; test: MCF10A IC50 assay; type: cell-based; settings: Homo sapiens, MCF-10A; class symbols; key not given
In short: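 MCF10A cells overexpressing hotspot PIK3CA mutations were seeded at 5,000 per well in supplemented DMEM/F12 and adhered overnight (37 °C, 5% CO₂). Compounds were added acoustically as 12-dose 1:3 series, in duplicate, for 2 hours. Cells were lysed 60 min, then incubated 4 hours at room temperature with CisBio phospho-AKT (Ser473) HTRF antibodies and read on an Envision 2105. IC₅₀ for AKT phosphorylation came from Genedata software and was reported as binned categories.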

PI3Kα, sequence (P42336 whole entry H1047R): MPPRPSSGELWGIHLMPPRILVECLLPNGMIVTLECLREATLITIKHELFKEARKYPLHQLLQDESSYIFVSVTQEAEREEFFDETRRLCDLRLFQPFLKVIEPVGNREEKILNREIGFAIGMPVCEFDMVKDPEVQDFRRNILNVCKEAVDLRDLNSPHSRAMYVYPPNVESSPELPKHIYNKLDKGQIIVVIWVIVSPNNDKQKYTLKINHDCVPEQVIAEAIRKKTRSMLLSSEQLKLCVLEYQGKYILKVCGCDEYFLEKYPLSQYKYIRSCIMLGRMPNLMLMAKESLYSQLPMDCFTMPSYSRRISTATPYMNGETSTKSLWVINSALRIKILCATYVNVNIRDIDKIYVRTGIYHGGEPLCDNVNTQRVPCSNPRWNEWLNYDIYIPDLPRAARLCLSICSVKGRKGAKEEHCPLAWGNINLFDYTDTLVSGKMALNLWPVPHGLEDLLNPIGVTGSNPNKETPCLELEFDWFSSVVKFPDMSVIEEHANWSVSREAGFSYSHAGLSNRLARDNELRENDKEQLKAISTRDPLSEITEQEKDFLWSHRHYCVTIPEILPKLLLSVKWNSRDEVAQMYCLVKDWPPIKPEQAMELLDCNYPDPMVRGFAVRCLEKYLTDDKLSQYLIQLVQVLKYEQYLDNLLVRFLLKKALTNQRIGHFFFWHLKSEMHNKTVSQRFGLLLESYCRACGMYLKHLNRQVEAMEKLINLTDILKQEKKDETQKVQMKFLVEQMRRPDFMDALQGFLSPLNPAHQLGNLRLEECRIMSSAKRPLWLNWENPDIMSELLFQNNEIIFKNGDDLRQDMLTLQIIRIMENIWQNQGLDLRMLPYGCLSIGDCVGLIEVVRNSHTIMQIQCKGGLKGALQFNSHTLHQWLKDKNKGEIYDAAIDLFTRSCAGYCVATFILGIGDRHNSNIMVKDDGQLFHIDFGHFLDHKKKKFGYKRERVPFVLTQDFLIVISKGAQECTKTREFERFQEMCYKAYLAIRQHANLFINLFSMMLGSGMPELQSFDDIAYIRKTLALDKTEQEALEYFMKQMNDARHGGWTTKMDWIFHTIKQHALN
PI3Kα, sequence (P27986 whole entry partner): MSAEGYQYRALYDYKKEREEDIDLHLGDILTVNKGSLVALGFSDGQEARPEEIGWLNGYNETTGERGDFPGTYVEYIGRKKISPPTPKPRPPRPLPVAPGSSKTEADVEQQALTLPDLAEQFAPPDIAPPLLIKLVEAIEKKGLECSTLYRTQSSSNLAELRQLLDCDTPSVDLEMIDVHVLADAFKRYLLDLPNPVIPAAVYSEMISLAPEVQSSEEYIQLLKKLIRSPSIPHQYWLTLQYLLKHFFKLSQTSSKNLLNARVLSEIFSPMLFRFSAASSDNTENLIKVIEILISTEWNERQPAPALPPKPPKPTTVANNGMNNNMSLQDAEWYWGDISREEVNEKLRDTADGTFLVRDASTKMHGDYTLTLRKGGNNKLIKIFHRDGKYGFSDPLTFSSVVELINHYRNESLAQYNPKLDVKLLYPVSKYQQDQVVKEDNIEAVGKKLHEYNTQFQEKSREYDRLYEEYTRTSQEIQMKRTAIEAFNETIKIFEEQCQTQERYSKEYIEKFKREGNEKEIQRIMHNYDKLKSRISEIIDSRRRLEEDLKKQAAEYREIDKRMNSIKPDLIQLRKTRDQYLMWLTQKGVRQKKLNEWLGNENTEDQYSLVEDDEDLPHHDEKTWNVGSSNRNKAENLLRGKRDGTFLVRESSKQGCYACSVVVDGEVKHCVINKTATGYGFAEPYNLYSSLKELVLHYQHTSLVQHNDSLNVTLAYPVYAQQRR

Cc1ccccc1Nc1ncc(C(=O)NCCCCCCCCCC(=O)N[C@H](C(=O)N2C[C@H](O)C[C@H]2C(=O)N[C@@H](C)c2ccc(-c3scnc3C)cc2)C(C)(C)C)cc1NC(=O)c1csc2ccccc12 [Example 1-7]
IC50 [1]: 100 to 500 nM | IC50 [2]: 10000 to 36000 nM

Cc1ccccc1Nc1ncc(C(=O)NCCCCCNC(=O)c2ccc3c(c2)CN(C2CCC(=O)NC2=O)C3=O)cc1NC(=O)c1csc2ccccc12 (stereo not drawn) [Example I-1]
IC50 [1]: 100 to 500 nM | IC50 [2]: 10000 to 36000 nM

Cc1ccccc1Nc1ncc(C(=O)NCCCCCCCCCNC(=O)c2ccc3c(c2)CN(C2CCC(=O)NC2=O)C3=O)cc1NC(=O)c1csc2ccccc12 (stereo not drawn) [Example I-2]
IC50 [1]: 500 to 1000 nM | IC50 [2]: 10000 to 36000 nM

Cc1ccccc1Nc1ncc(C(=O)NCCCCCCCCCC(=O)NCc2ccc3c(c2)CN(C2CCC(=O)NC2=O)C3=O)cc1NC(=O)c1csc2ccccc12 (stereo not drawn) [Example I-3]
IC50 [1]: 100 to 500 nM | IC50 [2]: 10000 to 36000 nM

Cc1ccccc1Nc1ncc(C(=O)NCCOCCOCCOCCC(=O)N[C@H](C(=O)N2C[C@H](O)C[C@H]2C(=O)N[C@@H](C)c2ccc(-c3scnc3C)cc2)C(C)(C)C)cc1NC(=O)c1csc2ccccc12 [Example I-4]
IC50 [1]: 1000 to 10000 nM | IC50 [2]: 10000 to 36000 nM

Cc1ccccc1Nc1ncc(C(=O)NCCCCCCCNC(=O)c2ccc3c(c2)CN(C2CCC(=O)NC2=O)C3=O)cc1NC(=O)c1csc2ccccc12 (stereo not drawn) [Example I-5]
IC50 [1]: 100 to 500 nM | IC50 [2]: 10000 to 36000 nM

Cc1ccccc1Nc1ncc(C(=O)NCCCCCCCC(=O)NCc2ccc3c(c2)CN(C2CCC(=O)NC2=O)C3=O)cc1NC(=O)c1csc2ccccc12 (stereo not drawn) [Example I-6]
IC50 [1]: 100 to 500 nM | IC50 [2]: 10000 to 36000 nM

Cc1ccccc1Nc1ncc(C(=O)NCCCCCCCC(=O)N[C@H](C(=O)N2C[C@H](O)C[C@H]2C(=O)N[C@@H](C)c2ccc(-c3scnc3C)cc2)C(C)(C)C)cc1NC(=O)c1csc2ccccc12 [Example I-8]
IC50 [1]: 100 to 500 nM | IC50 [2]: 10000 to 36000 nM

Cc1ccccc1Nc1ncc(C(=O)NCCCCCC(=O)NCc2ccc3c(c2)CN(C2CCC(=O)NC2=O)C3=O)cc1NC(=O)c1csc2ccccc12 (stereo not drawn) [Example I-9]
IC50 [1]: 100 to 500 nM | IC50 [2]: 10000 to 36000 nM

Cc1ccccc1Nc1ncc(C(=O)NCCCCCCCCCC(=O)N[C@H](C(=O)N2C[C@H](O)C[C@H]2C(=O)NCc2ccc(-c3scnc3C)cc2)C(C)(C)C)cc1NC(=O)c1csc2ccccc12 [Example I-10]
IC50 [1]: 100 to 500 nM | IC50 [2]: 10000 to 36000 nM

Cc1ccccc1Nc1ncc(C(=O)NCCOCCOCCOCCOCCOCCC(=O)N[C@H](C(=O)N2C[C@H](O)C[C@H]2C(=O)N[C@@H](C)c2ccc(-c3scnc3C)cc2)C(C)(C)C)cc1NC(=O)c1csc2ccccc12 [Example I-11]
IC50 [1]: 1000 to 10000 nM | IC50 [2]: 10000 to 36000 nM

Cc1ccccc1Nc1ncc(C(=O)NCCCCCCCCCNc2ccc3c(c2)C(=O)N(C2CCC(=O)NC2=O)C3=O)cc1NC(=O)c1csc2ccccc12 (stereo not drawn) [Example I-12]
IC50 [1]: 100 to 500 nM | IC50 [2]: 10000 to 36000 nM

Cc1ccccc1Nc1ncc(C(=O)NCCOCCOCCOCCOCCC(=O)N[C@H](C(=O)N2C[C@H](O)C[C@H]2C(=O)N[C@@H](C)c2ccc(-c3scnc3C)cc2)C(C)(C)C)cc1NC(=O)c1csc2ccccc12 [Example I-13]
IC50 [1]: 1000 to 10000 nM | IC50 [2]: 10000 to 36000 nM

Cc1ccccc1Nc1ncc(C(=O)NCCCCCNc2ccc3c(c2)C(=O)N(C2CCC(=O)NC2=O)C3=O)cc1NC(=O)c1csc2ccccc12 (stereo not drawn) [Example I-17]
IC50 [1]: < 100 nM | IC50 [2]: 5000 to 10000 nM

Cc1ccccc1Nc1ncc(C(=O)NCCCCCNc2cccc3c2C(=O)N(C2CCC(=O)NC2=O)C3=O)cc1NC(=O)c1csc2ccccc12 (stereo not drawn) [Example I-22]
IC50 [1]: 100 to 500 nM | IC50 [2]: 10000 to 36000 nM

Cc1ccccc1Nc1ncc(C(=O)NCCCCCCCCCC(N)=O)cc1NC(=O)c1csc2ccccc12 [Example I-24]
IC50 [1]: < 100 nM | IC50 [2]: 1000 to 5000 nM

Cc1ccccc1Nc1ncc(C(=O)NCCCCCCCCCC(=O)O)cc1NC(=O)c1csc2ccccc12 [Example I-25]
IC50 [1]: < 100 nM | IC50 [2]: 1000 to 5000 nM

CCCCCCCCCCCCNC(=O)c1cnc(Nc2ccccc2C)c(NC(=O)c2csc3ccccc23)c1 [Example I-28]
IC50 [1]: 1000 to 10000 nM | IC50 [2]: 10000 to 36000 nM

Cc1ccccc1Nc1ncc(C(=O)NCCCCCCCCCNc2cccc3c2C(=O)N(C2CCC(=O)NC2=O)C3=O)cc1NC(=O)c1csc2ccccc12 (stereo not drawn) [Example I-31]
IC50 [1]: 100 to 500 nM | IC50 [2]: 10000 to 36000 nM

Cc1ccccc1Nc1ncc(C(=O)NCCCCCCCNc2ccc3c(c2)C(=O)N(C2CCC(=O)NC2=O)C3=O)cc1NC(=O)c1csc2ccccc12 (stereo not drawn) [Example I-39]
IC50 [1]: 100 to 500 nM | IC50 [2]: 10000 to 36000 nM

Cc1ccccc1Nc1ncc(C(=O)NCC#Cc2ccc3c(c2)CN(C2CCC(=O)NC2=O)C3=O)cc1NC(=O)c1csc2ccccc12 (stereo not drawn) [Example I-53]
IC50 [1]: < 100 nM | IC50 [2]: < 1000 nM

Cc1ccccc1Nc1ncc(C(=O)NCCCCNc2ccc3c(c2)C(=O)N(C2CCC(=O)NC2=O)C3=O)cc1NC(=O)c1csc2ccccc12 (stereo not drawn) [Example I-54]
IC50 [1]: < 100 nM | IC50 [2]: 10000 to 36000 nM

O=C1CCC(N2Cc3cc(C(=O)NCCCCCCCCCNC(=O)c4cc(NC(=O)c5cc(F)cc(C(F)(F)F)c5)c5c(c4)C(=O)N[C@H]5c4cc(F)ccc4Cl)ccc3C2=O)C(=O)N1 (stereo partly drawn) [Example I-67]
IC50 [1]: < 100 nM | IC50 [2]: 10000 to 36000 nM

O=C(O)CCCCCCCCCNC(=O)c1cnc(Nc2cc(F)ccc2Cl)c(NC(=O)c2csc3ccccc23)c1 [Example I-72]
IC50 [1]: < 100 nM | IC50 [2]: 10000 to 36000 nM

Cc1cc(Br)c2oc(N3CCN(C(=O)CCCCCCCCNC(=O)c4cnc(Nc5ccccc5C)c(NC(=O)c5csc6ccccc56)c4)CC3)cc(=O)c2c1 [Example I-78]
IC50 [1]: 100 to 500 nM | IC50 [2]: 10000 to 36000 nM

Cc1cc([C@@H](C)Nc2ccccc2C(=O)O)c2oc(N3CCN(C(=O)CCOCCNc4ccc5c(c4)C(=O)N(C4CCC(=O)NC4=O)C5=O)CC3)cc(=O)c2c1 (stereo partly drawn) [Example I-144]
IC50 [1]: 1000 to 10000 nM

Cc1cc([C@@H](C)Nc2ccccc2C(=O)O)c2oc(N3CCN(C(=O)CCOCCNc4cccc5c4C(=O)N(C4CCC(=O)NC4=O)C5=O)CC3)cc(=O)c2c1 (stereo partly drawn) [Example I-145]
IC50 [1]: 1000 to 10000 nM

Cc1cc([C@@H](C)Nc2ccccc2C(=O)O)c2oc(N3CCN(C(=O)CCCNc4ccc5c(c4)C(=O)N(C4CCC(=O)NC4=O)C5=O)CC3)cc(=O)c2c1 (stereo partly drawn) [Example I-146]
IC50 [1]: 1000 to 10000 nM

Cc1cc([C@H](C)Nc2ccccc2C(=O)O)c2oc(N3CCN(C(=O)CCCNc4ccc5c(c4)C(=O)N(C4CCC(=O)NC4=O)C5=O)CC3)cc(=O)c2c1 (stereo partly drawn) [Example I-147]
IC50 [1]: 1000 to 10000 nM

Cc1cc([C@H](C)Nc2ccccc2C(=O)O)c2oc(N3CCN(C(=O)CCOCCNc4cccc5c4C(=O)N(C4CCC(=O)NC4=O)C5=O)CC3)cc(=O)c2c1 (stereo partly drawn) [Example I-148]
IC50 [1]: 1000 to 10000 nM

Cc1cc([C@@H](C)Nc2ccccc2C(=O)O)c2oc(N3CCN(C(=O)CCC(=O)NCc4ccc5c(c4)C(=O)N(C4CCC(=O)NC4=O)C5)CC3)cc(=O)c2c1 (stereo partly drawn) [Example I-149]
IC50 [1]: 1000 to 10000 nM

O=C1CCC(N2Cc3cc(C(=O)NCCCCCCCCNC(=O)c4cc(NC(=O)c5cccc(C(F)(F)F)c5)c5c(c4)C(=O)N[C@@H]5c4cc(F)ccc4Cl)ccc3C2=O)C(=O)N1 (stereo partly drawn) [Example I-150]
IC50 [1]: 1000 to 10000 nM

O=C1CCC(N2C(=O)c3ccc(NCCOCCOCCOCCOCCOCCOCCOCCOCCOCCOCCOCCOCCNC(=O)c4cc(NC(=O)c5cc(F)cc(C(F)(F)F)c5)c5c(c4)C(=O)N[C@@H]5c4cc(F)ccc4Cl)cc3C2=O)C(=O)N1 (stereo partly drawn) [Example I-151]
IC50 [1]: 1000 to 10000 nM

O=C1CCC(N2Cc3cc(C(=O)NCCCCCCCCCCNC(=O)c4cc(NC(=O)c5cccc(C(F)(F)F)c5)c5c(c4)C(=O)N[C@H]5c4cc(F)ccc4Cl)ccc3C2=O)C(=O)N1 (stereo partly drawn) [Example I-152]
IC50 [1]: 100 to 500 nM

O=C1CCC(N2Cc3cc(C(=O)NCCOCCOCCOCCOCCOCCOCCOCCOCCOCCOCCOCCOCCNC(=O)c4cc(NC(=O)c5cc(F)cc(C(F)(F)F)c5)c5c(c4)C(=O)N[C@@H]5c4cc(F)ccc4Cl)ccc3C2=O)C(=O)N1 (stereo partly drawn) [Example I-153]
IC50 [1]: 1000 to 10000 nM

O=C1CCC(N2Cc3cc(C(=O)NCCCCCCCCCCNC(=O)c4cc(NC(=O)c5cccc(C(F)(F)F)c5)c5c(c4)C(=O)N[C@@H]5c4cc(F)ccc4Cl)ccc3C2=O)C(=O)N1 (stereo partly drawn) [Example I-154]
IC50 [1]: 1000 to 10000 nM

O=C1CCC(N2Cc3cc(C(=O)NCCCCCCCCCNC(=O)c4cc(NC(=O)c5cccc(C(F)(F)F)c5)c5c(c4)C(=O)N[C@@H]5c4cc(F)ccc4Cl)ccc3C2=O)C(=O)N1 (stereo partly drawn) [Example I-155]
IC50 [1]: 1000 to 10000 nM

O=C1CCC(N2C(=O)c3ccc(NCCOCCOCCOCCOCCOCCOCCOCCOCCOCCOCCOCCOCCNC(=O)c4cc(NC(=O)c5cc(F)cc(C(F)(F)F)c5)c5c(c4)C(=O)N[C@H]5c4cc(F)ccc4Cl)cc3C2=O)C(=O)N1 (stereo partly drawn) [Example I-156]
IC50 [1]: < 100 nM

O=C1CCC(N2Cc3cc(C(=O)NCCOCCOCCOCCOCCOCCOCCOCCOCCOCCOCCOCCOCCNC(=O)c4cc(NC(=O)c5cc(F)cc(C(F)(F)F)c5)c5c(c4)C(=O)N[C@H]5c4cc(F)ccc4Cl)ccc3C2=O)C(=O)N1 (stereo partly drawn) [Example I-157]
IC50 [1]: 500 to 1000 nM

O=C1CCC(N2Cc3cc(C(=O)NCCCCCCCCNC(=O)c4cc(NC(=O)c5cccc(C(F)(F)F)c5)c5c(c4)C(=O)N[C@H]5c4cc(F)ccc4Cl)ccc3C2=O)C(=O)N1 (stereo partly drawn) [Example I-158]
IC50 [1]: < 100 nM

O=C1CCC(N2Cc3cc(C(=O)NCCCCCCCCCNC(=O)c4cc(NC(=O)c5csc6ccccc56)c5c(c4)C(=O)NC5c4cc(F)ccc4Cl)ccc3C2=O)C(=O)N1 (stereo not drawn) [Example I-159]
IC50 [1]: < 100 nM

O=C1CCC(N2Cc3cc(C(=O)NCCCCCCCCCNC(=O)c4cc(NC(=O)c5cccc(F)c5)c5c(c4)C(=O)N[C@H]5c4cc(F)ccc4Cl)ccc3C2=O)C(=O)N1 (stereo partly drawn) [Example I-160]
IC50 [1]: 100 to 500 nM

O=C1CCC(N2Cc3cc(C(=O)NCCCCCCCCCNC(=O)c4cc(NC(=O)c5cccc(F)c5)c5c(c4)C(=O)N[C@@H]5c4cc(F)ccc4Cl)ccc3C2=O)C(=O)N1 (stereo partly drawn) [Example I-161]
IC50 [1]: 1000 to 10000 nM

O=C1CCC(N2Cc3cc(C(=O)NCCCCCCCCCNC(=O)c4cc(NC(=O)c5cccc(C(F)(F)F)c5)c5c(c4)C(=O)N[C@H]5c4cc(F)ccc4Cl)ccc3C2=O)C(=O)N1 (stereo partly drawn) [Example I-162]
IC50 [1]: 500 to 1000 nM
